# Test results taken from ChEMBL document CHEMBL1143211, “Inhibitors of proteases and amide hydrolases that employ an alpha-ketoheterocycle as a key enabling functionality” (Bioorg Med Chem, 2008).
# How the values were obtained:
# Coagulation factor X = Coagulation factor X (Homo sapiens, UniProt P00742); test: Inhibition of human factor 10a
# Prothrombin = Prothrombin (Homo sapiens, UniProt P00734); test: Inhibition of human alpha-thrombin
# [1] = molecular target: T1, Fatty-acid amide hydrolase 1 (Rattus norvegicus, UniProt P97612)
# T1 sequence (P97612 whole entry): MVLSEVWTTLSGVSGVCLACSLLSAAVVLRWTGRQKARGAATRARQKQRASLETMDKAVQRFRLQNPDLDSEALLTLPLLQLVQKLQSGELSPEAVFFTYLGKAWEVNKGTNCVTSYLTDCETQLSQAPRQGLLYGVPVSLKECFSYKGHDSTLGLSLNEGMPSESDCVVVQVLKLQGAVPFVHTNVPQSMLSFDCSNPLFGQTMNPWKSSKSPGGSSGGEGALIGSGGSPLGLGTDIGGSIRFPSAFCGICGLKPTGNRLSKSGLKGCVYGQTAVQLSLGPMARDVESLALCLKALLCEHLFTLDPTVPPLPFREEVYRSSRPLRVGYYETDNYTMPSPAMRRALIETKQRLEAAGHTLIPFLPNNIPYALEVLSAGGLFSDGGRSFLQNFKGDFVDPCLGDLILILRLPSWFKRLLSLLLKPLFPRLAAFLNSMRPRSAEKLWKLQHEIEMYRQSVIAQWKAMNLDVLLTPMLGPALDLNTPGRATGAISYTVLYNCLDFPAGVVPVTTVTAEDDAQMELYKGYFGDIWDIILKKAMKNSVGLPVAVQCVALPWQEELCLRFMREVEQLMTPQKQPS
# Trypsin = Trypsin (Homo sapiens, UniProt P07477+P07478+P35030); test: Inhibition of human trypsin; type: protein assay
# Sequence of Coagulation factor X (P00742 41-179 limits assumed): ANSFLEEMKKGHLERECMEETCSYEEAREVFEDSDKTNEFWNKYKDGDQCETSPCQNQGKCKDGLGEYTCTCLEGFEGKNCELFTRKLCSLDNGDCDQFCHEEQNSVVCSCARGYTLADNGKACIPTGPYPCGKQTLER
# Sequence of Coagulation factor X (P00742 235-488 limits assumed): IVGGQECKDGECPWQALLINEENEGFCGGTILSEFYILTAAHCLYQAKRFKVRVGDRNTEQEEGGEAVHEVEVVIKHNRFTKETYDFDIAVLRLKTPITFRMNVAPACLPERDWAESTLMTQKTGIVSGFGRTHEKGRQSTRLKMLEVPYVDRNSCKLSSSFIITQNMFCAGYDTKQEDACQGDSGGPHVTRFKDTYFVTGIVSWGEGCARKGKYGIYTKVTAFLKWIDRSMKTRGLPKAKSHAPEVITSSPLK
compound,measurement,setting,value
N=C(N)NCCC[C@@H](NS(=O)(=O)Cc1ccccc1)C(=O)NCC(=O)N[C@@H](Cc1ccncc1)C(=O)c1nccs1,IC50,Coagulation factor X,44 nM
"Cc1cccc(C(C)(C)CN(CC(=O)NCC(=O)NC(CCCN=C(N)N)B(O)O)C(=O)CCc2ccccc2)c1 (single isomer, unassigned)",Ki,Prothrombin,400 nM
N=C(N)NCCC[C@H](NC(=O)CNC(=O)[C@@H](Cc1c[nH]c2ccccc12)NS(=O)(=O)Cc1ccccc1)C(=O)c1nccs1,IC50,Coagulation factor X,2 nM
NC(N)=NCCC[C@H](NC(=O)[C@@H]1CC[C@H]2CN(C(=O)[C@H](N)Cc3cc4ccccc4[nH]3)CC(=O)N21)C(=O)c1nccs1,Ki,Prothrombin,1 nM
N=C(N)NCCC[C@H](NC(=O)CN1CCN[C@@H](CCCNC(=N)N)C1=O)C(=O)c1nccs1,IC50,Prothrombin,150000 nM
same,IC50,Coagulation factor X,11 nM
CCCCCCCC/C=C\CCCCCCCC(=O)c1nnnn1C,Ki,[1],3700 nM
N=C(N)NCCC[C@H](NC(=O)CN1CCN(C(=O)c2ccccc2)CC1=O)C(=O)c1nccs1,IC50,Prothrombin,7000 nM
same,IC50,Coagulation factor X,320 nM
N=C(N)NCCC[C@H](NC(=O)[C@@H]1CCCN1C(=O)CC(c1ccccc1)c1ccccc1)C(=O)c1nc2ccccc2s1,Ki,Prothrombin,1.1 nM
C[C@H]1C(=O)N(CCCc2ccccc2)CC(=O)N1CC(=O)N[C@@H](C[C@@H]1CCCN(C(=N)N)C1)C(=O)c1nccs1,IC50,Trypsin,24 µM
N=C(N)N1CCC[C@@H](C[C@H](NC(=O)[C@@H]2CC[C@H]3CN(C(=O)CCc4ccccc4)CC(=O)N32)C(=O)c2nc3ccccc3s2)C1,IC50,Prothrombin,< 1 nM
same,IC50,Trypsin,0.59 µM
NC(N)=NCCC[C@H](NC(=O)CN1CCCC[C@@H](NS(=O)(=O)Cc2ccccc2)C1=O)C(=O)c1nccs1,IC50,Prothrombin,38 nM
CCCCC/C=C\C/C=C\C/C=C\C/C=C\CCCC(=O)c1nc2ncccc2o1,Ki,[1],1 nM
N=C(N)NCCC[C@H](NC(=O)CN1CCN(S(=O)(=O)Cc2ccccc2)[C@H](Cc2ccccc2)C1=O)C(=O)c1nccs1,IC50,Prothrombin,510 nM
same,IC50,Coagulation factor X,0.9 nM
N=C(N)NCCC[C@H](NC(=O)CNC(=O)[C@@H](Cc1ccccc1)NS(=O)(=O)Cc1ccccc1)C(=O)c1nccs1,IC50,Coagulation factor X,2 nM
N=C(N)NCCC[C@@H](NS(=O)(=O)Cc1ccccc1)C(=O)NCC(=O)N[C@@H](CC1CCNCC1)C(=O)c1nccs1,IC50,Coagulation factor X,28 nM
C[C@]12C[C@@H](Cc3ccc4nc(C(F)(F)F)ccc4c3)CC(=O)N1[C@H](C(=O)N[C@@H](CCCNC(=N)N)C(=O)c1nc3ccccc3s1)CS2,Ki,Prothrombin,18 nM
CS(=O)(=O)N[C@H](CCCNC(=N)N)C(=O)NCC(=O)N[C@@H](CCCNC(=N)N)C(=O)c1nccs1,IC50,Coagulation factor X,2 nM
N=C(N)NCCC[C@H](NC(=O)CNC(=O)[C@@H](CC1CCCCC1)NS(=O)(=O)Cc1ccccc1)C(=O)c1nccs1,IC50,Prothrombin,40 nM
same,IC50,Coagulation factor X,0.6 nM
CC(C)(C)CC(=O)N[C@H](Cc1ccccc1)C(=O)N1CCC[C@H]1C(=O)N[C@@H](CCCNC(=N)N)C(=O)c1nc2ccccc2o1.O=C(O)C(F)(F)F,IC50,Trypsin,0.0023 µM
same,IC50,Coagulation factor X,110 nM
CC(C)C[C@H](NC(=O)NCc1ccc(Cl)c(Cl)c1)C(=O)N[C@H](C(=O)N[C@@H](CCCN=C(N)N)C(=O)c1nccs1)C(C)C,IC50,Prothrombin,2600 nM
N[C@H]1CC[C@H]([C@H](NC(=O)[C@@H]2CC[C@H]3CN(S(=O)(=O)Cc4ccccc4)CC(=O)N32)C(=O)c2nc3ccccc3s2)CC1,Ki,Prothrombin,0.7 nM
same,Ki,Trypsin,1.4 µM
CCCCCCCC/C=C\CCCCCCCC(=O)c1nccs1,Ki,[1],> 100000 nM
CN(CC(=O)N[C@@H](CCCNC(=N)N)C(=O)c1nccs1)C(=O)CNS(=O)(=O)c1ccccc1,IC50,Coagulation factor X,6 nM
N=C(N)N1CCC([C@H](NC(=O)[C@@H]2CC[C@H]3CN(C(=O)CCc4ccccc4)CC(=O)N32)C(=O)c2nccs2)CC1,IC50,Trypsin,11.9 µM
CCCCCCCC/C=C\CCCCCCCC(=O)c1nnn(C)n1,Ki,[1],65 nM
N=C(N)NCCC[C@H](NC(=O)[C@@H]1CCCN1C(=O)[C@H](CO)NS(=O)(=O)c1cccc2ccccc12)C(=O)c1nc2ccccc2s1,Ki,Prothrombin,0.8 nM
N[C@H]1CC[C@H]([C@H](NC(=O)[C@@H]2CC[C@H]3CN(S(=O)(=O)Cc4ccccc4)CC(=O)N32)C(=O)c2nccs2)CC1,Ki,Prothrombin,3.2 nM
same,Ki,Trypsin,8 µM
NC(N)=NCCC[C@H](NC(=O)CN1CCN[C@H](CCCN=C(N)N)C1=O)C(=O)c1nccs1,IC50,Prothrombin,200000 nM
same,IC50,Coagulation factor X,21 nM
N=C(N)N1CCC[C@@H](C[C@H](NC(=O)CN2C(=O)CN(c3ccccc3)C(=O)[C@H]2Cc2ccccc2)C(=O)c2nccs2)C1,IC50,Prothrombin,1200 nM
NC(N)=NCCC[C@H](NC(=O)CN1CCN(S(=O)(=O)Cc2ccccc2)CC1=O)C(=O)c1nccs1,IC50,Prothrombin,390 nM
same,IC50,Coagulation factor X,4 nM
N=C(N)N1CCC[C@@H](C[C@H](NC(=O)CN2C(=O)CN(CCCc3ccc(Cl)cc3)C(=O)[C@H]2Cc2ccccc2)C(=O)c2nccs2)C1,IC50,Prothrombin,110 nM
N=C(N)NCCC[C@H](NC(=O)Cn1c(Cc2ccccc2)c(Cl)nc(NCCc2ccccc2)c1=O)C(=O)c1nccs1,IC50,Trypsin,0.47 µM
N=C(N)N1CCC[C@@H](C[C@H](NC(=O)CN2CC(=O)N(CCCc3ccccc3)CC2=O)C(=O)c2nccs2)C1,Ki,Prothrombin,500 nM
same,IC50,Trypsin,91 µM
N=C(N)NCCC[C@H](NC(=O)CN1CCN(Cc2ccccc2)CC1=O)C(=O)c1nccs1,IC50,Prothrombin,14000 nM
same,IC50,Coagulation factor X,770 nM
N=C(N)NCCC[C@H](NC(=O)[C@@H]1CC[C@H]2CN(S(=O)(=O)Cc3ccccc3)CC(=O)N21)C(=O)c1nccs1,Ki,Prothrombin,0.2 nM
COC(=O)c1cccnc1-c1cnc(C(=O)CCCCCCc2ccccc2)o1,Ki,[1],130 nM
CCCCCCCC/C=C\CCCCCCCC(=O)c1nc2ccncc2o1,Ki,[1],3.7 nM
NC(N)=NCCC[C@H](NC(=O)CN1CCN(C(=O)Cc2ccccc2)CC1=O)C(=O)c1nccs1,IC50,Prothrombin,11000 nM
same,IC50,Coagulation factor X,17 nM
COc1ccnc(-c2cnc(C(=O)CCCCCCc3ccccc3)o2)c1,Ki,[1],0.8 nM
CCCCCCCC/C=C\CCCCCCCC(=O)c1cccnn1,Ki,[1],130 nM
CCCCCCCC/C=C\CCCCCCCC(=O)c1ncco1,Ki,[1],17 nM
N=C(N)NCCC[C@@H](N)C(=O)NCC(=O)N[C@@H](CCCNC(=N)N)C(=O)c1nccs1,IC50,Coagulation factor X,8 nM
CCCCCCCC(=O)c1nc2ncccc2o1,Ki,[1],0.69 nM
C[C@]12C[C@@H](Cc3ccc4nc(C(F)(F)F)ccc4c3)CC(=O)N1[C@H](C(=O)N[C@@H](CCCN=C(N)N)C(=O)c1nccs1)CS2,Ki,Prothrombin,10 nM
COC(=O)n1nnnc1C(=O)[C@@H](NC(=O)[C@@H]1CC[C@H]2CN(S(=O)(=O)Cc3ccccc3)CC(=O)N21)[C@H]1CC[C@H](N)CC1,Ki,Prothrombin,2600 nM
same,Ki,Trypsin,> 400 µM
N=C(N)NCCC[C@H](NC(=O)[C@@H]1CC[C@H]2CN(C(=O)CCOc3ccccc3)CC(=O)N21)C(=O)c1nccs1,Ki,Prothrombin,5 nM
C[C@@H]1C(=O)N(CCCc2ccccc2)CC(=O)N1CC(=O)N[C@@H](C[C@@H]1CCCN(C(=N)N)C1)C(=O)c1nccs1,IC50,Trypsin,0.34 µM
N=C(N)N1CCC[C@@H](C[C@H](NC(=O)CN2C(=O)CN(CCCc3ccccc3)C(=O)[C@H]2Cc2ccccc2)C(=O)c2nccs2)C1,IC50,Trypsin,9.1 µM
N=C(N)NCCC[C@@H](NS(=O)(=O)Cc1ccccc1)C(=O)NCC(=O)N[C@@H](CCCCN)C(=O)c1nccs1,IC50,Coagulation factor X,1 nM
CN[C@H](Cc1ccccc1)C(=O)N1CCC[C@H]1C(=O)N[C@](C)(CCCNC(=N)N)C(=O)c1nc2ccccc2s1.O=C(O)C(F)(F)F,IC50,Prothrombin,3700 nM
same,IC50,Trypsin,6 µM
C[C@]12C[C@@H](Cc3ccccc3)CC(=O)N1[C@H](C(=O)N[C@@H](CCCNC(=N)N)C(=O)c1nccs1)CS2,Ki,Prothrombin,16 nM
CCCCCCCC/C=C\CCCCCCCC(=O)c1nnco1,Ki,[1],90 nM
CCCCC/C=C\C/C=C\C/C=C\C/C=C\CCCC(=O)[n+]1ccccn1,Ki,[1],47 nM
N=C(N)NCCC[C@@H](NS(=O)(=O)Cc1ccccc1)C(=O)NCC(=O)N[C@@H](Cc1c[nH]c2ccccc12)C(=O)c1nccs1,IC50,Trypsin,> 180 µM
same,IC50,Coagulation factor X,39 nM
CCCCCCCCCC/C=C\CCCCCCC(=O)c1ncc(-c2cccnn2)o1,Ki,[1],14 nM
C[C@]12C[C@@H](Cc3ccccc3)CC(=O)N1[C@H](C(=O)N[C@@H](CCCN=C(N)N)C(=O)c1nc3ccccc3s1)CS2,Ki,Prothrombin,18 nM
CCCCCCCC/C=C\CCCCCCCC(=O)c1nc2ccccc2s1,Ki,[1],> 100000 nM
CCCCC(=O)c1nc2ncccc2o1,Ki,[1],50 nM
NC(N)=NCCC[C@H](NC(=O)CN1CCN(S(=O)(=O)c2ccccc2)CC1=O)C(=O)c1nccs1,IC50,Prothrombin,420 nM
same,IC50,Coagulation factor X,8 nM
N=C(N)NCCC[C@H](NC(=O)CN1CCN(S(=O)(=O)Cc2ccccc2)[C@@H](Cc2ccccc2)C1=O)C(=O)c1nccs1,IC50,Prothrombin,2000 nM
same,IC50,Coagulation factor X,59 nM
N=C(N)NCCC[C@H](NC(=O)[C@@H]1CC[C@H]2CN(C(=O)CCc3ccccc3)CC(=O)N21)C(=O)c1nc2ccccc2s1,IC50,Prothrombin,< 1 nM
NC(N)=NCCC[C@H](NC(=O)CN1CCN(S(=O)(=O)c2ccc(Cl)cc2)CC1=O)C(=O)c1nccs1,IC50,Prothrombin,1000 nM
Cc1nc(C(=O)[C@@H](NC(=O)[C@@H]2CC[C@H]3CN(S(=O)(=O)Cc4ccccc4)CC(=O)N32)[C@H]2CC[C@H](N)CC2)sc1C(=O)O,Ki,Prothrombin,80 nM
same,Ki,Trypsin,65 µM
Cn1nnnc1C(=O)[C@@H](NC(=O)[C@@H]1CC[C@H]2CN(S(=O)(=O)Cc3ccccc3)CC(=O)N21)[C@H]1CC[C@H](N)CC1,Ki,Prothrombin,5 nM
same,Ki,Trypsin,35 µM
O=C(CCc1ccc(-c2ccccc2)cc1)c1nc(-c2ccccn2)co1,Ki,[1],0.75 nM
